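Following 48 hours of exposure in 96-well plates, responses at five concentrations were used to interpolate endpoints linearly. GI50 marks 50% less growth.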 Activity calls are given as the source filed them. Cut-off read from the data, not from the text of the source: active = GI50 up to about 1.1 µM and inactive = higher.
How the values were obtained:
Test in all cases: inhibition of tumour cell growth, NCI panel, 48 h
ACHN = tested on: ACHN
CAKI-1 = tested on: CAKI-1
COLO 205 = tested on: COLO 205
DU-145 = tested on: DU-145
HOP-92 = tested on: HOP-92
LOX IMVI = tested on: LOX IMVI
M14 = tested on: M14
MDA-MB-231 = tested on: MDA-MB-231
NCI-H226 = tested on: NCI-H226
NCI-H23 = tested on: NCI-H23
NCI-H460 = tested on: NCI-H460
OVCAR-3 = tested on: OVCAR-3
OVCAR-4 = tested on: OVCAR-4
PC-3 = tested on: PC-3
RPMI-8226 = tested on: RPMI-8226
RXF 393 = tested on: RXF 393
SK-MEL-28 = tested on: SK-MEL-28
SNB-19 = tested on: SNB-19
T47D = tested on: T47D
Malme-3M = tested on: Malme-3M

| Compound | GI50 (ACHN) | GI50 (CAKI-1) | GI50 (COLO 205) | GI50 (DU-145) | GI50 (HOP-92) | GI50 (LOX IMVI) | GI50 (M14) | GI50 (MDA-MB-231) | GI50 (NCI-H226) | GI50 (NCI-H23) | GI50 (NCI-H460) | GI50 (OVCAR-3) | GI50 (OVCAR-4) | GI50 (PC-3) | GI50 (RPMI-8226) | GI50 (RXF 393) | GI50 (SK-MEL-28) | GI50 (SNB-19) | GI50 (T47D) | GI50 (Malme-3M) |
| --- | --- | --- | --- | --- | --- | --- | --- | --- | --- | --- | --- | --- | --- | --- | --- | --- | --- | --- | --- | --- |
| COc1ccc2oc(C(=O)N3CC(CCl)c4ccc(N)cc43)cc2c1 (centres undefined) | 0.147 µM (active) | 0.185 µM (active) | 0.284 µM (active) | 0.247 µM (active) | 0.358 µM (active) | 0.356 µM (active) | 0.805 µM (active) | 0.826 µM (active) | 1.16 µM (inactive) | 0.174 µM (active) | 0.203 µM (active) | 0.918 µM (active) | 0.286 µM (active) | 0.296 µM (active) | 0.226 µM (active) | 0.249 µM (active) | 0.42 µM (active) | 1.14 µM (inactive) | 0.31 µM (active) |  |
| Cc1nc(SCC(=O)Nc2ccc(Cl)cc2)c2sc(=S)n(-c3ccccc3)c2n1 | > 10 µM (inactive) | > 10 µM (inactive) | > 10 µM (inactive) | > 10 µM (inactive) | 5.15 µM (inactive) | > 10 µM (inactive) | > 10 µM (inactive) | > 10 µM (inactive) | > 10 µM (inactive) | > 10 µM (inactive) | > 10 µM (inactive) | > 10 µM (inactive) | > 10 µM (inactive) | > 10 µM (inactive) | > 10 µM (inactive) | > 10 µM (inactive) | > 10 µM (inactive) | > 10 µM (inactive) | > 10 µM (inactive) | > 10 µM (inactive) |
| CC1C(=O)N=C2C(=CN(Cc3ccccc3)c3ccccc32)C(=O)N1C (centres undefined) | > 100 µM (inactive) | > 100 µM (inactive) | > 100 µM (inactive) | > 100 µM (inactive) | > 100 µM (inactive) |  | > 100 µM (inactive) | > 100 µM (inactive) | > 100 µM (inactive) | > 100 µM (inactive) | > 100 µM (inactive) | > 100 µM (inactive) | > 100 µM (inactive) | > 100 µM (inactive) | > 100 µM (inactive) | > 100 µM (inactive) | > 100 µM (inactive) | > 100 µM (inactive) | > 100 µM (inactive) | > 100 µM (inactive) |
| COC(=O)C(CCCCN)NC(=O)C(CCCCN)NC(=O)C(CCCCN)NC(C)=O.Cc1ccc(C(=O)Nc2ccc(S(=O)(=O)O)c3cc(S(=O)(=O)O)cc(S(=O)(=O)O)c23)cc1NC(=O)c1cccc(NC(=O)Nc2cccc(C(=O)Nc3cc(C(=O)Nc4ccc(S(=O)(=O)O)c5cc(S(=O)(=O)O)cc(S(=O)(=O)O)c45)ccc3C)c2)c1 | > 50 µM (inactive) | > 50 µM (inactive) | > 50 µM (inactive) | > 50 µM (inactive) | > 50 µM (inactive) | > 50 µM (inactive) | > 50 µM (inactive) | > 50 µM (inactive) | 17.7 µM (inactive) | > 50 µM (inactive) | 48.9 µM (inactive) | > 50 µM (inactive) | 11.3 µM (inactive) | > 50 µM (inactive) | > 50 µM (inactive) | > 50 µM (inactive) | > 50 µM (inactive) | > 50 µM (inactive) | > 50 µM (inactive) |  |
| Clc1ccc(/C(=C\c2ccccc2)Cn2ccnc2)cc1 | 16.6 µM (inactive) | 7.21 µM (inactive) | 15.1 µM (inactive) | 20.1 µM (inactive) | 14.8 µM (inactive) | 8.83 µM (inactive) | 19.6 µM (inactive) | 11.1 µM (inactive) | 13.6 µM (inactive) | 28.9 µM (inactive) | 20.1 µM (inactive) |  | 30.5 µM (inactive) | 11.5 µM (inactive) | 22.3 µM (inactive) | 17.3 µM (inactive) | 13.3 µM (inactive) | 21 µM (inactive) | 19.2 µM (inactive) | 10.2 µM (inactive) |
| CCOC(=O)CC[C@H](NC(=O)c1ccc(CNc2nc3cc(C(F)(F)F)ccc3nc2C(=O)OCC)cc1)C(=O)OCC | 33.8 µM (inactive) | 14.3 µM (inactive) | > 100 µM (inactive) | > 81.8 µM (inactive) | 13 µM (inactive) | > 100 µM (inactive) | > 43.7 µM (inactive) | 13.3 µM (inactive) |  | 26.1 µM (inactive) | 15.5 µM (inactive) | > 38.8 µM (inactive) |  | 30.3 µM (inactive) | 5.58 µM (inactive) | 27.7 µM (inactive) | > 69.8 µM (inactive) | 9.14 µM (inactive) | 18.1 µM (inactive) | 18.8 µM (inactive) |
| Cc1c(CCN2CCOCC2)c(N2CCOCC2)n2c(nc3ccccc32)c1C#N | > 10 µM (inactive) | > 10 µM (inactive) | > 10 µM (inactive) | > 10 µM (inactive) | > 10 µM (inactive) | > 10 µM (inactive) | > 10 µM (inactive) | > 10 µM (inactive) | > 10 µM (inactive) | > 10 µM (inactive) | > 10 µM (inactive) | > 10 µM (inactive) | > 10 µM (inactive) | > 10 µM (inactive) | > 10 µM (inactive) | > 10 µM (inactive) | > 10 µM (inactive) | > 10 µM (inactive) | > 10 µM (inactive) | > 10 µM (inactive) |
| Cc1[nH]c2ncn(Nc3ccccc3)c(=N)c2c1Cc1ccccc1 | 4.22 µM (inactive) | 24.4 µM (inactive) | 0.0998 µM (active) | 35.4 µM (inactive) | 33.1 µM (inactive) | 10.7 µM (inactive) | 0.162 µM (active) | 61.7 µM (inactive) | > 55 µM (inactive) | 31.8 µM (inactive) | 14.3 µM (inactive) | 30.1 µM (inactive) | > 27.5 µM (inactive) | 23.4 µM (inactive) | > 60.7 µM (inactive) | 30.6 µM (inactive) |  | > 51.3 µM (inactive) | 1.07 µM (active) | > 38.7 µM (inactive) |
| COC(=O)c1ccccc1C1CN=NC12Cc1cc(C)cc(C)c1C2=O (centres undefined) | 88.7 µM (inactive) | 36.8 µM (inactive) | 30.5 µM (inactive) | > 100 µM (inactive) | 26.9 µM (inactive) | 20 µM (inactive) | 67.8 µM (inactive) | 14.4 µM (inactive) | 99.3 µM (inactive) | 15.1 µM (inactive) | 45.5 µM (inactive) | 96.6 µM (inactive) | 65.3 µM (inactive) | 37.5 µM (inactive) |  | > 100 µM (inactive) | > 100 µM (inactive) | > 100 µM (inactive) | 44.7 µM (inactive) | 97.9 µM (inactive) |
| OC(C1CO1)C(O)C1CO1 (centres undefined) | 4.04 µM (inactive) |  | 87.7 µM (inactive) | 9.75 µM (inactive) | > 75.5 µM (inactive) | 15.7 µM (inactive) | 18.6 µM (inactive) | 132 µM (inactive) |  | 20.1 µM (inactive) | 3.33 µM (inactive) | 70.3 µM (inactive) | 84.9 µM (inactive) | 39.8 µM (inactive) | 69 µM (inactive) | 56.1 µM (inactive) | 92.3 µM (inactive) | 58.9 µM (inactive) | 17 µM (inactive) | 55.7 µM (inactive) |
| COc1ccc(/C=C2\CSC/C(=C\c3ccc(OC)c(OC)c3OC)C2=O)c(OC)c1OC | 16.9 µM (inactive) |  | 37.9 µM (inactive) | > 100 µM (inactive) | 35.6 µM (inactive) | 23.4 µM (inactive) | 18.5 µM (inactive) | 66.4 µM (inactive) | > 100 µM (inactive) | 43.5 µM (inactive) | 34.5 µM (inactive) | 52.1 µM (inactive) |  | 47.3 µM (inactive) | 16.4 µM (inactive) | 15.6 µM (inactive) | 28.1 µM (inactive) | > 100 µM (inactive) | > 100 µM (inactive) | 5.86 µM (inactive) |
| CCOP(=O)(OCC)/C(=C/c1ccccc1)CC(C)=O | > 100 µM (inactive) | > 100 µM (inactive) | > 100 µM (inactive) | > 100 µM (inactive) | > 100 µM (inactive) | > 100 µM (inactive) | > 100 µM (inactive) | > 100 µM (inactive) | > 100 µM (inactive) | > 100 µM (inactive) | > 100 µM (inactive) | > 100 µM (inactive) | > 100 µM (inactive) | > 100 µM (inactive) |  | > 100 µM (inactive) | > 100 µM (inactive) | > 100 µM (inactive) | > 100 µM (inactive) | > 100 µM (inactive) |
| C(=N\NC1=NCCN1)/c1ccc(-c2cn3cc(/C=N/NC4=NCCN4)ccc3n2)cc1 | 34.6 µM (inactive) | 22 µM (inactive) | > 100 µM (inactive) | 16.6 µM (inactive) | 18.8 µM (inactive) | 7.74 µM (inactive) | > 32.7 µM (inactive) | 14.6 µM (inactive) |  | > 100 µM (inactive) | 3.76 µM (inactive) | > 39.4 µM (inactive) | 31 µM (inactive) | 22.9 µM (inactive) | 16.6 µM (inactive) | > 55.6 µM (inactive) |  | > 43.1 µM (inactive) | > 100 µM (inactive) | 2.82 µM (inactive) |
| FC(F)(F)c1cc(N(C2c3ccccc3C=Cc3ccccc32)P(Cl)Cl)cc(C(F)(F)F)c1 | 17.5 µM (inactive) | 21.9 µM (inactive) | 22.2 µM (inactive) | 19.3 µM (inactive) | 15.6 µM (inactive) | 18.5 µM (inactive) | 22.8 µM (inactive) | 18.6 µM (inactive) | 19.1 µM (inactive) | 18 µM (inactive) |  | 16.4 µM (inactive) | 18.9 µM (inactive) | 22.7 µM (inactive) | 18 µM (inactive) | 13.8 µM (inactive) | 25.6 µM (inactive) | 21.8 µM (inactive) | 17.9 µM (inactive) | 17.5 µM (inactive) |

From ChEMBL document CHEMBL1201862, “PubChem BioAssay data set” (2004)
